{"source": "patent US20260000496A1", "about": "“MATERIALS AND METHODS FOR DRUG-INDUCED GINGIVAL OVERGROWTH” (Optimed Technology, Inc., priority 2019, published 2026)", "key": {"LITAF": {"test_system": "LITAF", "assay": "Mice study #2: LITAF immunostaining of gingival tissue", "format": "in vivo, C57BL/6 mice", "protocol": "(§1) Mice study #2: Validation study for preventive and active treatment for DIGO. […] One set of these mice were used as a control disease group (FIG. 23A) while the other group was treated with folic acid (gel and in drinking water) (FIG. 23B). In the prevention and treatment group, folic acid (10 μg/ml) (Sigma-Aldrich, St. Louis MO) was included in the drinking water from the time of suture placement until end of the study (14 days). Additionally, gel applications were repeated daily until the end of the study (14 days). The four groups in this study were: • 1. Control group (n=2): no interventions were performed • 2.\n(§2) Histopathology and Immunohistochemistry. Mice mandibles were fixed in 10% formaldehyde for overnight at 4° C. on the shaker with 45 rpm and then the solutions were replaced with 70% ethanol. The tissues were decalcified with 10% ethylenediaminetetraacetic acid (EDTA) for 1 week and were dehydrated through graded ethanol, cleared with xylene, and embedded in paraffin. 4 μm serial sections were cut in a buccal-lingual direction and stained with Hematoxylin and Eosin (HE) and observed under light microscopy for histomorphological evaluations.\n(§3) For immunohistochemistry, unstained sections were deparaffinized in xylene for 10 minutes and then transferred to ethanol for 20 minutes. […]"}, "[1]": {"test_system": "Collagen type I alpha 1 (Col1a1)", "assay": "Collagen (Col1a1) expression in Human Oral Fibroblasts, QPCR", "format": "cell-based", "details": "HOF treated with conditioned media from Oral Keratinocytes containing LPS, CSA, Phenytoin or Folic acid (10 μg/ml), 24 hours; p<0.05", "protocol": "(§4) Cell Culture. Normal human oral keratinocytes (NOKSI) and fibroblast (HOF) cells were maintained in Dulbecco […] Eagle's medium (Sigma-Aldrich, St. Louis, MO, USA) supplemented with 10% fetal bovine serum (Atlas Bio-logicals, Fort Collins, CO, USA) and 100 units/mL penicillin and 100 μg/mL streptomycin (LifeTechnologies, Carlsbad, CA, USA). Cells were grown in incubator at 37° C. in a humidified chamber with 5% CO2.\nHuman Oral Fibroblasts (HOF) cells were seeded in 60 mm plates with a density of 2.5×10^4/cm^2 and treated with condition (CM) media collected from Oral Keratinocytes containing LPS (10 μg/ml), CSA (10 μg/ml), Phenytoin (10 μg/ml), or Folic acid (10 μg/ml) and incubated for 24 hours. The Collagen type I alpha 1 (Col1a1) gene expression was determined by QPCR. HOF cells were treated with rTGF-β, SB-431542 (SB), rTNF-α, or TNF-α inhibitor (TNF-α inh). Quantitative real-time PCR results showing the expression of Col1a1 in HOF cells after the treatment. (p<0.05)."}, "MyD88": {"test_system": "MyD88", "assay": "Western blot of MyD88 in oral keratinocytes", "format": "cell-based, human", "protocol": "as §4\nDrugs treatment in cell culture. The cells were treated alone or with different combination of lipopolysaccharide, cyclosporine, phenytoin, and folic acid. All of them were purchased from Sigma-Aldrich (St. Louis, MO, USA). Each of them were used from 0 μg/ml to 40 μg/ml and the optimum concentration were found 10 μg/ml.\nWestern blot analysis. Cells were seeded in 60 mm plates with a density of 5×10^5 cells per plate and washed briefly with Dulbecco's phosphate-buffered saline (Gibco, Waltham, MA, USA). Whole cell lysates were prepared using RIPA lysis buffer containing protease inhibitor cocktail (Sigma-Aldrich). Total protein concentration was determined using the BCA reagent (Pierce, Waltham, MA, USA). 20 μg of total protein were resolved on sodium dodecyl sulfate-polyacrylamide gel electrophoresis and transferred to polyvinylidenedifluoride membrane and immunoblotted. The blots were incubated for 1 h in 1% bovine serum albumin (BSA) (Sigma-Aldrich) to block the non-specific bindings followed by over-night incubation in primary antibodies (MyD88 and pP65 from Cell Signaling Technology, and human LITAF ThermoFisher Sigma) at 4° C. on shaker. Next day, blots were washed for three times (10 min each) in Tris-buffered saline containing 1% Tween20 (TBST) followed by incubation with secondary antibody (Goat anti-rabbit IgG HRP) with 1:10,000 dilution for 1 h. Following washes, bands were visualized using gel documentation Imaging Systems (BioRad). The band intensities were quantified using software ImageJ (NIH, USA) and relative protein levels were normalized by β-actin (Cell Signaling). To perform the western blot of animal tissue samples, the gingival tissues were collected from both BABLB/c and C57BL/6 mice studies. The soft tissues were separated from the mandibular bone and then crunched. The Bradford assay was performed to measure the protein concentration of each sample. After normalization, 20 μg of whole tissue protein lysate were proceeded for western blot analysis."}, "NFκB": {"test_system": "NFκB", "assay": "Mice study #2: NFκB immunostaining of gingival tissue", "format": "in vivo, C57BL/6 mice", "protocol": "as §1, §2, §3"}}, "data": [{"smiles": "Nc1nc2ncc(CNc3ccc(C(=O)N[C@@H](CCC(=O)O)C(=O)O)cc3)nc2c(=O)[nH]1", "note": "[folic acid]", "values": [{"measurement": "epithelial LITAF expression, disease group relative to folic acid-treated group", "setting": "LITAF", "result": "higher in the disease group and uniformly distributed compared to the control and treated groups"}, {"measurement": "Collagen type I alpha 1 (Col1a1) gene expression", "setting": "[1]", "result": "reduces the collagen expression"}, {"measurement": "MyD88 protein level", "setting": "MyD88; LPS, CSA, FA each 10 μg/ml, 24 hours", "result": "inhibits CSA-induced expression"}, {"measurement": "amount of MYD88 protein", "setting": "MyD88; LPS, Phe, FA each 10 μg/ml, 24 hours", "result": "MyD88 expression is reduced"}, {"measurement": "MyD88 by western blot, dose-dependent effects of FA", "setting": "MyD88; different concentration of folic acid, 24 hrs", "result": "inhibition of MyD88"}, {"measurement": "MyD88 by western blot, kinetics of downregulation", "setting": "MyD88; different time points, FA 10 μg/ml", "result": "inhibition of MyD88"}, {"measurement": "MyD88 by western blot", "setting": "MyD88; normal oral keratinocyte cells, FIG. 35", "result": "downregulation"}, {"measurement": "NFκB epithelial expression, control, disease and folic acid-treated groups", "setting": "NFκB", "result": "higher in the control group followed by the disease group"}]}]}
